In ChEMBL document CHEMBL1201862, “PubChem BioAssay data set” (2004):
Calls of active or inactive are those of the source.

Key:
[1] = target: Fructose-bisphosphate aldolase (Mycobacterium tuberculosis, UniProt P9WQA3); test: Fluorescence-based biochemical high throughput dose response assay for inhibitors of the fructose-bisphosphate aldolase (FBA) of M. tuberculosis.; type: functional
Caspase-8 = Caspase-8 (Homo sapiens, UniProt Q14790); test: caspase-8 inhibition counter-screen, dose response, selectivity assay for caspase-6 inhibitor project, biochemical, Z-IETD-R110 fluorescence, cherry-picked samples (AID 743294)
Caspase-7 = target: T1, Caspase-7 (Homo sapiens, UniProt P55210); test: human caspase-7 inhibitors, dose response, selectivity assay for caspase-6 inhibitor project, biochemical, DEVD-R110 fluorescence, cherry-pick (AID 743295)
T1 sequence (P55210 whole entry): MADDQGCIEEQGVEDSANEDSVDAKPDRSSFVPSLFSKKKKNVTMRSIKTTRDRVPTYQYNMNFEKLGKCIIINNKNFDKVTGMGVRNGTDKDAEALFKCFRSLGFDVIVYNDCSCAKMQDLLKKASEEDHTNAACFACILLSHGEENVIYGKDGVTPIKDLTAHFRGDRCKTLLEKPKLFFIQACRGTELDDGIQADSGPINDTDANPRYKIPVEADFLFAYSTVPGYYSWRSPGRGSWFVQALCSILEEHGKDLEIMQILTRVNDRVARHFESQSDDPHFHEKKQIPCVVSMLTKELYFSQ

Caspase-6 = target: T2, Caspase-6 (Homo sapiens, UniProt P55212); test: human caspase-6 inhibitors, dose response, biochemical, VEID-R110 fluorescence, cherry-pick (AID 720632)
T2 sequence (P55212 whole entry): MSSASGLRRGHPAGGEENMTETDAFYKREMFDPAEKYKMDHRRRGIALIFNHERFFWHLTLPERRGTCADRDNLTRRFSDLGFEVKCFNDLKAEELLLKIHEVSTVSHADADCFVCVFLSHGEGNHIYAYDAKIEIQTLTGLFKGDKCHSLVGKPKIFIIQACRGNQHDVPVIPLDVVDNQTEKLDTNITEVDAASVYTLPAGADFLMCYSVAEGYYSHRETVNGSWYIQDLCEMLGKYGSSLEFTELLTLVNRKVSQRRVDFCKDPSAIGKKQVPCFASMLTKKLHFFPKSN

Protein Tat = target: T3, Protein Tat (Human immunodeficiency virus type 1 group M subtype B (isolate HXB2)(HIV-1), UniProt P04608); type: functional;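 note: tat binding to TAR RNA read out by fluorescence polarization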
T3 sequence (P04608 whole entry): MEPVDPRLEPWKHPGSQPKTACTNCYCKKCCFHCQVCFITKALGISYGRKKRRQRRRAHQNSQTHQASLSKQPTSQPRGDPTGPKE

[2] = target: Rho-associated protein kinase 1 (Homo sapiens, UniProt Q13464); type: functional;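 note: measured within a broad kinome-wide panel profiling many kinases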
[3] = target: Vascular endothelial growth factor receptor 2 (Homo sapiens, UniProt P35968); type: functional
Beta-galactosidase = Beta-galactosidase (Escherichia coli, UniProt Q8VNN2); test: Dose response counterscreen for EBI2 assay utilizing the enzyme, b-galactosidase.; type: functional
[4] = Vero E6 cell cytotoxicity, dose response, cytotoxicity control for non-replicating M. tuberculosis project, secondary assay (AID 492998); type: functional, VeroE6; details: Vero C1008
[5] = THP-1 cell cytotoxicity, dose response, cytotoxicity control for non-replicating M. tuberculosis project (AID 489025); type: functional
cells [6] = type: functional, cell-based
cells [7] = type: functional, cell-based; remark: listed apart in the source
[8] = target: T4, DNA repair protein RAD52 homolog (Homo sapiens, UniProt P43351); type: functional, biochemical
T4 sequence (P43351 whole entry): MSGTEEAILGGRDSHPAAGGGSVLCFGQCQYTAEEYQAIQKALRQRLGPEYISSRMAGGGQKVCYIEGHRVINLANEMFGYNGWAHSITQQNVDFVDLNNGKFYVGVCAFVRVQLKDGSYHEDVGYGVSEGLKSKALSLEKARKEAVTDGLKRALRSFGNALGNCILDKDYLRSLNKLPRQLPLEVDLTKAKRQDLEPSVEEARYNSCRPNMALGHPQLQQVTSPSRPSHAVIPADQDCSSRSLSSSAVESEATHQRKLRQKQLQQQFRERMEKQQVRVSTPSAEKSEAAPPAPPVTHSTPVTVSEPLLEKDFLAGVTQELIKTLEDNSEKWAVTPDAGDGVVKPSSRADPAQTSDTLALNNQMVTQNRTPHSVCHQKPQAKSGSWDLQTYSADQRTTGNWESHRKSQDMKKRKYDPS

cells [9] = type: functional
Albumin = Albumin (Bos taurus, UniProt P02769); test: Counterscreen for inhibitors of T-cell receptor (TCR)-CD3 interaction: Fluorescence-based biochemical high throughput dose response assay to identify inhibitors of T-cell receptor (TCR)-CD3 interaction using a TAMRA-labeled BSA probe.; type: functional
[10] = NIH-3T3 fibroblast cytotoxicity, dose response, cytotoxicity control, cell-based, fluorescence, Alamar Blue, secondary assay (AID 2327); type: functional;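 note: NIH-3T3 mouse fibroblasts cultured with fluconazole at 8 µg/mL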
[11] = C. albicans growth with fluconazole, confirmation, fluorescence, retest (AID 2467); type: functional, cell-based
[12] = Luminescence Cell-Based Dose Retest to Confirm Inhibitors of Cancer Stem Cells. [Related pubchem assays (depositor defined):AID2717, AID2721]; type: functional; details: Homo sapiens
[13] = target: Disintegrin and metalloproteinase domain-containing protein 17 (Homo sapiens, UniProt P78536); test: ADAM17 protease inhibitors, dose response, counter-screen for ADAM10 exosite inhibitor project, biochemical, quenched FRET substrate (AID 743253)
[14] = ADAM10 inhibitors, peptide cleavage, dose response, biochemical, QFRET (AID 743254);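 note: ADAM10 enzyme with the DM2 quenched FRET peptide as substrate; EDANS fluorescence gain as the protease cuts the substrate; inhibitor potency against ADAM10 proteolytic activity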
fMet-Leu-Phe receptor = fMet-Leu-Phe receptor (Homo sapiens, UniProt P21462); test: FPR ligands, dose response (AID 519); type: functional
[15] = target: G-protein coupled receptor 55 (Homo sapiens, UniProt Q9Y2T6); test: GPR55 antagonists blocking LPI-driven arrestin recruitment, primary screen, imaging, U2OS, beta-arrestin-GFP, LPI agonist (AID 2013); type: functional;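 note: antagonist potency measured as reduced agonist-driven arrestin aggregation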
Estrogen receptor = target: T5, Estrogen receptor (Homo sapiens, UniProt P03372);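 note: potency for inhibiting coactivator peptide recruitment to the receptor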
T5 sequence (P03372 whole entry): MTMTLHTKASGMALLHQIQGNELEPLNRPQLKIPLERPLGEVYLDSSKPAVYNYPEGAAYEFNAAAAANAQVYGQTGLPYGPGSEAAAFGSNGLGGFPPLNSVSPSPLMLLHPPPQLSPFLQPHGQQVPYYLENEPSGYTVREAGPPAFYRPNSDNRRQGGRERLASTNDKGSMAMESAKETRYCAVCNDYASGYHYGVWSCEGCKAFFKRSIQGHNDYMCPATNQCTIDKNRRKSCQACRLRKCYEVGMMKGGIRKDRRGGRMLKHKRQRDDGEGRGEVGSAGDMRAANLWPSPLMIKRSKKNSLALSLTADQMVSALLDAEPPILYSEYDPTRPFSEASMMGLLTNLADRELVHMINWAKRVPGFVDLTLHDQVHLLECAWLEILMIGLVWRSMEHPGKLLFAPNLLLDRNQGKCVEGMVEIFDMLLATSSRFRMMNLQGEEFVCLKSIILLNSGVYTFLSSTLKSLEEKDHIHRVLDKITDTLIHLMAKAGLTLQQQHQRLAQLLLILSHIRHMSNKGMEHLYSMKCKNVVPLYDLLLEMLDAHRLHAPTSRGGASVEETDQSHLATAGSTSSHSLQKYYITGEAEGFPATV

[16] = target: T6, Mannose-6-phosphate isomerase (Homo sapiens, UniProt P34949); test: human PMI inhibitors, high substrate, primary screen, biochemical, fluorescence intensity, high mannose 6-phosphate (AID 1220)
T6 sequence (P34949 whole entry): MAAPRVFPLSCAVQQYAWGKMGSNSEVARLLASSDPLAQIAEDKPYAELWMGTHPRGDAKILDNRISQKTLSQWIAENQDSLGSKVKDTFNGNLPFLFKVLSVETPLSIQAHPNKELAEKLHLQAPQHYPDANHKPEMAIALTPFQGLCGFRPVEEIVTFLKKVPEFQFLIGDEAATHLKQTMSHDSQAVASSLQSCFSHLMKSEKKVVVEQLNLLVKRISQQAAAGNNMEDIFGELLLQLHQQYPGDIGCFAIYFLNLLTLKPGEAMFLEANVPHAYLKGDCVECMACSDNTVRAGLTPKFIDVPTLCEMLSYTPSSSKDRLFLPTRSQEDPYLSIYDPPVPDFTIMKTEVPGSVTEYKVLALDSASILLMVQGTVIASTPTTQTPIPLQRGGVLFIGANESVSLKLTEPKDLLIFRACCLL

[17] = target: T6, Mannose-6-phosphate isomerase; test: inhibitors of human PMI, primary screen, biochemical, fluorescence intensity, coupled assay (AID 1209)
[18] = Late stage assay provider results from the probe development effort to identify inhibitors of the Plasmodium falciparum M18 Aspartyl Aminopeptidase (M18AAP): radiolabel-based cell-based dose response assay to identify compounds that inhibit P. falciparum growth in RBCs, Set 2..; type: functional
[19] = HEp-2 cell cytotoxicity, dose response, cytotoxicity control for RSV inhibitor project, HTS (AID 2410); type: functional; details: human respiratory syncytial virus
[20] = THP-1 cell cytotoxicity, dose response, cytotoxicity control for Vif-APOBEC3G degradation inhibitor project, THP-1 cells (AID 1117359); type: functional; details: Human immunodeficiency virus 1, THP-1
[21] = T. cruzi growth inhibition in host cells, dose response, cell-based, plate reader, dry powder, set 2 (AID 652275); type: functional
[22] = MITF Orthogonal Assay: SK-MEL-5 CTG Assay Measured in Cell-Based System Using Plate Reader - 2084-02_Inhibitor_Dose_DryPowder_Activity_Set7.; type: functional
[23] = MITF: Counter assay: A375 proliferation Measured in Cell-Based System Using Plate Reader - 2084-03_Inhibitor_Dose_DryPowder_Activity_Set8.; type: functional; details: A-375
[24] = cytotoxicity toward NIH3T3 fibroblasts, dose response, counter-screen, cell-based, ATP luminescence, mouse fibroblasts (AID 2010); type: functional;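 note: cells exposed to compound for about 90 hours before reading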
[25] = inhibitors of intracellular T. cruzi replication, confirmation, NIH3T3 host cells, beta-gal luminescence (AID 2044); type: functional, cell-based;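 note: intracellular parasites grown in NIH/3T3 mouse fibroblasts as host cells; luminescent beta-galactosidase reporter signal from transgenic T. cruzi replicating inside host cells; inhibitors lower the luminescence signal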

Fructose-bisphosphate aldolase, sequence (P9WQA3 whole entry): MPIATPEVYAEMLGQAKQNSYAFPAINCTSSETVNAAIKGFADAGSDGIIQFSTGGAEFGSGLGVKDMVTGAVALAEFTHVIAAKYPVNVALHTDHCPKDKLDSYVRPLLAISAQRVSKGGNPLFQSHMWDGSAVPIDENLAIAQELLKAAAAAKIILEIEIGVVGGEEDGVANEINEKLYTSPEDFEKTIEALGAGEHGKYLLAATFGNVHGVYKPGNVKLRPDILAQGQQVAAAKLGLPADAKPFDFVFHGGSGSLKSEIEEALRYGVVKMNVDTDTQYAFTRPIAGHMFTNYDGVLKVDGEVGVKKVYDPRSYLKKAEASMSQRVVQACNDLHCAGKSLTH
Beta-galactosidase, sequence (Q8VNN2 whole entry): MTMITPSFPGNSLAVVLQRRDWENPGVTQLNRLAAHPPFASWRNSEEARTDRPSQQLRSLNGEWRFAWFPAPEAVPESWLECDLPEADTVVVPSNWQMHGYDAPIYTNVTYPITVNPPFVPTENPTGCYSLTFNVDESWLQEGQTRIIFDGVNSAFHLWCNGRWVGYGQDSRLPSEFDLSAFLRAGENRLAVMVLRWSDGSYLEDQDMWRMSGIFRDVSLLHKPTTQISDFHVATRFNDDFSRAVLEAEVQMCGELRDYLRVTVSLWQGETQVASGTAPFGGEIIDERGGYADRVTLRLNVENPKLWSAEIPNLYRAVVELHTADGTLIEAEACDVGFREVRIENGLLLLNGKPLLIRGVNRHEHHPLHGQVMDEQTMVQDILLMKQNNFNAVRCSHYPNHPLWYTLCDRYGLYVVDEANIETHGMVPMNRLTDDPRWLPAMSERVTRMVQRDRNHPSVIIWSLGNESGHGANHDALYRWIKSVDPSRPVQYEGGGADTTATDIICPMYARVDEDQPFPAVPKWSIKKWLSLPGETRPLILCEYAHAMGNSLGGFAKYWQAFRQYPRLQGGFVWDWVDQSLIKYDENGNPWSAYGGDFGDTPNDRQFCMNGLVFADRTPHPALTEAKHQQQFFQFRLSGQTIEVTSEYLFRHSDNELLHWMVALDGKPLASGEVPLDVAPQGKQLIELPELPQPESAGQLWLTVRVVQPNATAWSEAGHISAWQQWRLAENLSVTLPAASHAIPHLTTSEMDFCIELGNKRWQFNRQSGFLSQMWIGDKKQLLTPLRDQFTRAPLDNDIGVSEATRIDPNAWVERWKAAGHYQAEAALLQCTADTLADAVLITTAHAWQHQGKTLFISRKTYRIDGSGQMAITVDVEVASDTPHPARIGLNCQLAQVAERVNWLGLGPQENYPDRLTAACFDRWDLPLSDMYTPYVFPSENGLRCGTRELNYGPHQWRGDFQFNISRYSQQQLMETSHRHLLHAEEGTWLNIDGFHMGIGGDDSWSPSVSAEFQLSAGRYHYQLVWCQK
Caspase-8, sequence (Q14790 217-374 limits assumed): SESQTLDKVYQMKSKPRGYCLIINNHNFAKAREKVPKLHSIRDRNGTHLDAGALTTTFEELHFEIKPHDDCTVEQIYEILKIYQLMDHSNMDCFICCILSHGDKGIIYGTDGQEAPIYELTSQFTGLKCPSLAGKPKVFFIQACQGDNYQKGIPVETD
Caspase-8, sequence (Q14790 385-479 limits assumed): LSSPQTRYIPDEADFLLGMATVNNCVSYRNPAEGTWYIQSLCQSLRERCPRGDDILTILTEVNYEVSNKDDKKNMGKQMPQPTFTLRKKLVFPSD
Disintegrin and metalloproteinase domain-containing protein 17, sequence (P78536 whole entry, the tested form may be a part): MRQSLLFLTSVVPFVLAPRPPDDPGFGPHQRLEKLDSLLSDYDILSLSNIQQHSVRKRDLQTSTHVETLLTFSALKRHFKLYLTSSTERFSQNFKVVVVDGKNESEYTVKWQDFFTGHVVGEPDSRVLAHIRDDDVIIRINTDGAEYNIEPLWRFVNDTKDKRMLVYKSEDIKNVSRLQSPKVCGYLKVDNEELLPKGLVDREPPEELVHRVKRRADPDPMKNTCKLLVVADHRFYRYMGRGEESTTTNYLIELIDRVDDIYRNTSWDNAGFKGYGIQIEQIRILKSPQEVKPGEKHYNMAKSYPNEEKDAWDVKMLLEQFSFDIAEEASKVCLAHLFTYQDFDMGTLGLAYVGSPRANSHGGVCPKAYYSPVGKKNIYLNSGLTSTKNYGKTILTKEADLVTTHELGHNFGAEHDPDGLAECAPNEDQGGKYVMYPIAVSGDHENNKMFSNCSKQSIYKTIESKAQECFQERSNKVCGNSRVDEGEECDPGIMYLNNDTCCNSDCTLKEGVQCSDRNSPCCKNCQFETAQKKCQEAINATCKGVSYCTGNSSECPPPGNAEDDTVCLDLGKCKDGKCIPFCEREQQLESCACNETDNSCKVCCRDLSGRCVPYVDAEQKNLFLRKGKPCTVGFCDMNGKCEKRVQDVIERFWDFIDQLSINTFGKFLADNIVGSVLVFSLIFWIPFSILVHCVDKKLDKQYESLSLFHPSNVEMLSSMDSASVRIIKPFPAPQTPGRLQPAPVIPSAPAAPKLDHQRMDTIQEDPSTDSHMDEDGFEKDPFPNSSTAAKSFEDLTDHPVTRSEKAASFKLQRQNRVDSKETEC
Albumin, sequence (P02769 whole entry): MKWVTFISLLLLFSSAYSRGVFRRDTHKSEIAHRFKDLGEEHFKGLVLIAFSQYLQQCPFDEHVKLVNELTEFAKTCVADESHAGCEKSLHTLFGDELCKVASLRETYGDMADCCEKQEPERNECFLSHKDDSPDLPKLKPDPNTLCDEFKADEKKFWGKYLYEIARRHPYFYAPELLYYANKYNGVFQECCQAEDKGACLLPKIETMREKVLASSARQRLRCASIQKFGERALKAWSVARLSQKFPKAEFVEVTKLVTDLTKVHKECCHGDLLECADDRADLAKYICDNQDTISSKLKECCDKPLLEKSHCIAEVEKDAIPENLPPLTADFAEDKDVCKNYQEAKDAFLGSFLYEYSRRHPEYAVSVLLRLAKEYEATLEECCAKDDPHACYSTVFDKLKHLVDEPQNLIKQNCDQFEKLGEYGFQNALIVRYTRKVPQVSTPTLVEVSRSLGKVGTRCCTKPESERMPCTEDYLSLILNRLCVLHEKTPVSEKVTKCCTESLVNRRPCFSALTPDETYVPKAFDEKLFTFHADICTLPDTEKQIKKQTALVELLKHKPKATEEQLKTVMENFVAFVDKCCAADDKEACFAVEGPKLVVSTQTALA
Vascular endothelial growth factor receptor 2, sequence (P35968 whole entry): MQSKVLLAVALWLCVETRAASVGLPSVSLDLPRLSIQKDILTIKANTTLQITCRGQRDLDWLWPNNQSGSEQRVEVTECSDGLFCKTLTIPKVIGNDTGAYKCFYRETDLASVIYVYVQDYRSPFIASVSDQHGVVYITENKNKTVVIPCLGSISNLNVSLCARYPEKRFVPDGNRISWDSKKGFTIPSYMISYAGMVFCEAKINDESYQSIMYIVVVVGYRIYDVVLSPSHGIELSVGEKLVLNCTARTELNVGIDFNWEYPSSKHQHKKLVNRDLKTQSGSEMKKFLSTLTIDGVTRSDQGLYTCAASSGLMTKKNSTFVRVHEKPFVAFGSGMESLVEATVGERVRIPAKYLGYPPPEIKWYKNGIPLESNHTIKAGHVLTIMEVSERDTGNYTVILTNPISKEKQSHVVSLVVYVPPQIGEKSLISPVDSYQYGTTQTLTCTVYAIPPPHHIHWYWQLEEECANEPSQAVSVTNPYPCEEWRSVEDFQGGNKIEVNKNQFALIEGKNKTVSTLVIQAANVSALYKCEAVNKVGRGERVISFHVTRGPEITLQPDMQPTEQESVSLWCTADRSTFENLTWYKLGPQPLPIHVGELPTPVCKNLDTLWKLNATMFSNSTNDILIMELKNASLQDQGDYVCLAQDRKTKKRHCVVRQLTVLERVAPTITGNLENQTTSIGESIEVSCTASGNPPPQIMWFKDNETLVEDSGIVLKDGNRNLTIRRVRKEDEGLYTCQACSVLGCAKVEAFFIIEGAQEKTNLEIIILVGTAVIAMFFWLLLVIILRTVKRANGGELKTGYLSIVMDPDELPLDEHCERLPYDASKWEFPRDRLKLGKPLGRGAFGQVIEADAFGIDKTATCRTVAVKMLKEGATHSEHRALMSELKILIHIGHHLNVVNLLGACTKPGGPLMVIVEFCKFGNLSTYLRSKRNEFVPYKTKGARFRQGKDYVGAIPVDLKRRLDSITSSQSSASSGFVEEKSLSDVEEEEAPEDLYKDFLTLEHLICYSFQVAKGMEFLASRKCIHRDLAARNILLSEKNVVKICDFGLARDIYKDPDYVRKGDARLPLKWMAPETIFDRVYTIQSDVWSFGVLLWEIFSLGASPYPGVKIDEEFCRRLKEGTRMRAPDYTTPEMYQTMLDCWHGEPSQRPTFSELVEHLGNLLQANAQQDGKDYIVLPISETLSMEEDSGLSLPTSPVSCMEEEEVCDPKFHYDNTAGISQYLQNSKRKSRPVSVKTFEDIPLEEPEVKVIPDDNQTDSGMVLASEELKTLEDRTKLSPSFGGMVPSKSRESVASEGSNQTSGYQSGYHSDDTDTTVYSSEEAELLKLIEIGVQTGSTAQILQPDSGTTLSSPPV
fMet-Leu-Phe receptor, sequence (P21462 whole entry): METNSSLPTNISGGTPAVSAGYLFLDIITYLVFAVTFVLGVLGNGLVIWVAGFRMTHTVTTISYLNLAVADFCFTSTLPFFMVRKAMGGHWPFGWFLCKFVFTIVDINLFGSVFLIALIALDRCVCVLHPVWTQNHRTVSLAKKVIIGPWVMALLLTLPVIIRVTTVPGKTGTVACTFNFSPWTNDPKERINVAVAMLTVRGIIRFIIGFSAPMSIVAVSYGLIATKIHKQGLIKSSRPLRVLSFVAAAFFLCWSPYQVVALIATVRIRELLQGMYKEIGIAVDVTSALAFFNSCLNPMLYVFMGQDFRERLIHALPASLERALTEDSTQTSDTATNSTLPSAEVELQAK

COc1ccccc1N1C(=O)NC(=O)/C(=C/c2ccc3c4c(cccc24)CC3)C1=O
IC50 [1]: 2.23 µM (active)

COc1ccc(NC(=O)CN(C)C(=O)c2cccc(-n3cccc3)c2)cc1
AC50 (Caspase-8): 61.2 µM (active) | AC50 (Caspase-7): > 70 µM (inactive) | AC50 (Caspase-6): 4.5 µM (active) | IC50 (Protein Tat): > 100 µM (active)

Oc1cc(O)cc(C=Cc2ccc(O)c(O)c2)c1
AC50 (Caspase-8): > 70 µM (inactive) | Ki [2]: 2.51 µM (active) | Ki [3]: > 2.51 µM (inactive) | AC50 (Caspase-7): > 70 µM (inactive) | AC50 (Caspase-6): 1.2 µM (active)

CCOC(=O)C1=C(Nc2ccc(OC)cc2)S/C(=C\c2cc(OC)c(OC)c(OC)c2)C1=O
IC50 (Beta-galactosidase): > 80 µM (inactive)

Cc1cc(N/N=C/c2ccccc2O)c2ccccc2n1
CC50 [4]: 17.6 µM (active) | CC50 [5]: 25.6 µM (active) | EC50 (cells [6]): > 29.9 µM (inactive) | IC50 (cells [7]): > 29.9 µM (inactive) | AC50 [8]: 5.36 µM (active) | IC50 (cells [9]): 7.92 µM (active)

Cc1ccc(C(=O)NNC(=O)c2cc3ccccc3cc2O)cc1
IC50 (Albumin): > 94.1 µM (inactive) | EC50 [10]: > 160 µM (inactive) | EC50 [11]: 3.16 µM (active)

C=CCC[C@H](Cc1ccc(F)cc1)C(=O)OC[C@@H](Cc1c[nH]c2ccccc12)NC(=O)[C@@H](CC=C)CC(=O)N(CCO)Cc1ccccc1
AC50 [12]: 4.62 µM (active) | IC50 [13]: > 69.5 µM (inactive) | IC50 [14]: > 69.5 µM (inactive)

CCCCn1c(NC(=O)CC)c(C#N)c2nc3ccccc3nc21
Ki (fMet-Leu-Phe receptor): 24.2 µM (inactive) | IC50 [15]: 1.55 µM (active) | IC50 (Estrogen receptor): 23.4 µM (active)

Cn1ncc2c(NNC(=O)c3ccc(Cl)cc3Cl)ncnc21
IC50 [16]: > 50 µM (not active) | IC50 [17]: > 50 µM (not active)

Cc1ccc(C)c(N(C(=O)c2snc(C(N)=O)c2N)C(C(=O)NCC2CCCO2)c2cccs2)c1 (stereo not drawn)
IC50 [1]: > 1.11 µM (active)

NCCNc1c2ccccc2nc2ccccc12
IC50 [18]: 500 nM (active)

Cc1ccc(C)c(N2CCN(C(=O)c3cc4c(C)nc5ccccc5c4o3)CC2)c1
IC50 (Beta-galactosidase): > 80 µM (inactive) | CC50 [19]: 8.05 µM (active)

CC(=O)NN1C(=O)/C(=C\c2ccc(Br)o2)SC1=S
CC50 [20]: > 40 µM (active)

Cc1cccc(-c2ccc([C@H]3[C@H](CO)N4CCCCN(C(=O)c5ccncc5)C[C@@H]34)cc2)c1
AC50 [21]: 2.46 µM (active)

O=C1C=C(Nc2ccc3ccccc3c2)C(=O)c2ccccc21
AC50 [22]: 1.65 µM (active) | AC50 [23]: 49.4 µM (active)

Oc1cccc(CCNc2ccnc3ccccc23)c1O
IC50 [18]: 2700 nM (active)

OC(COCC(F)(F)C(F)(F)C(F)(F)C(F)F)Cn1c2ccccc2c2ccccc21 (stereo not drawn)
AC50 [12]: 2.9 µM (active) | EC50 [24]: > 60 µM (inconclusive) | EC50 [25]: 1.71 µM (active) | IC50 [13]: > 69.5 µM (inactive) | IC50 [14]: > 7.73 µM (active)

CC(C)N1C[C@H](C)[C@@H](CN(C)Cc2ccc(Oc3ccccc3)cc2)Oc2c(cccc2-c2cn(-c3ccncc3)nn2)C1=O
AC50 [21]: 0.0204 µM (active)
